Measurements as given in the NIST ThermoML archive (doi:10.1016/j.jct.2009.08.009).

Assay: xn = mol fraction of the nth substance listed
Settings: 101 kPa, Liquid; for viscosity: Capillary tube (Ostwald / Ubbelohde) method; for speed of sound: Sing-around technique in a fixed-path interferometer; for mass density: Vibrating tube method

CCOCCOCCO [3,6-dioxa-1-octanol] + CCCCCCCCCCO
Settings | mass density [kg/m3] | speed of sound [m/s] | viscosity [mPa·s]
293.15 K, x1 = 0.0607 | 836.419 | 1394.1 | 11.4
293.15 K, x1 = 0.109 | 841.997 | 1392.3 | 10.28
293.15 K, x1 = 0.1561 | 847.628 | 1390.6 | 9.367
293.15 K, x1 = 0.2105 | 854.439 | 1388.9 | 8.743
293.15 K, x1 = 0.2599 | 862.044 | 1387.4 | 7.761
293.15 K, x1 = 0.3089 | 867.859 | 1386.6 | 7.383
293.15 K, x1 = 0.3533 | 874.329 | 1385.8 | 6.336
293.15 K, x1 = 0.4923 | 896.636 | 1385.3 | 5.731
293.15 K, x1 = 0.5986 | 916.267 | 1387.2 | 5.141
293.15 K, x1 = 0.7153 | 940.786 | 1392.6 | 4.525
293.15 K, x1 = 0.7918 | 959.008 | 1398.6 | 4.186
293.15 K, x1 = 0.901 | 988.518 | 1412.6 | 3.899
293.15 K, x1 = 1 | – | – | 3.626
298.15 K, x1 = 0.0607 | 832.969 | 1377 | 9.658
298.15 K, x1 = 0.109 | 838.521 | 1375.3 | 8.774
298.15 K, x1 = 0.1561 | 844.112 | 1373.6 | 8.059
298.15 K, x1 = 0.2105 | 850.88 | 1371.8 | 7.574
298.15 K, x1 = 0.2599 | 858.441 | 1370.5 | 6.868
298.15 K, x1 = 0.3089 | 864.217 | 1369.6 | 6.353
298.15 K, x1 = 0.3533 | 870.65 | 1368.9 | 6.008
298.15 K, x1 = 0.4923 | 892.825 | 1368.4 | 5.027
298.15 K, x1 = 0.5986 | 912.348 | 1370.3 | 4.479
298.15 K, x1 = 0.7153 | 936.739 | 1375.7 | 4.005
298.15 K, x1 = 0.7918 | 954.872 | 1381.7 | 3.729
298.15 K, x1 = 0.901 | 984.244 | 1395.6 | 3.449
298.15 K, x1 = 1 | – | – | 3.278
303.15 K, x1 = 0.0607 | 829.51 | 1360.1 | 8.114
303.15 K, x1 = 0.109 | 835.031 | 1358.4 | 7.312
303.15 K, x1 = 0.1561 | 840.589 | 1356.8 | 6.739
303.15 K, x1 = 0.2105 | 847.315 | 1355.1 | 6.387
303.15 K, x1 = 0.2599 | 854.826 | 1353.7 | 5.858
303.15 K, x1 = 0.3089 | 860.567 | 1352.8 | 5.366
303.15 K, x1 = 0.3533 | 866.962 | 1352.1 | 5.083
303.15 K, x1 = 0.4923 | 889.005 | 1351.7 | 4.338
303.15 K, x1 = 0.5986 | 908.42 | 1353.7 | 3.859
303.15 K, x1 = 0.7153 | 932.679 | 1358.9 | 3.458
303.15 K, x1 = 0.7918 | 950.728 | 1364.9 | 3.235
303.15 K, x1 = 0.901 | 979.965 | 1378.8 | 3.021
303.15 K, x1 = 1 | – | – | 2.862
308.15 K, x1 = 0.0607 | 826.037 | 1343.3 | 6.698
308.15 K, x1 = 0.109 | 831.525 | 1341.6 | 6.116
308.15 K, x1 = 0.1561 | 837.051 | 1340.1 | 5.838
308.15 K, x1 = 0.2105 | 843.734 | 1338.4 | 5.38
308.15 K, x1 = 0.2599 | 851.204 | 1336.9 | 4.826
308.15 K, x1 = 0.3089 | 856.908 | 1336.2 | 4.528
308.15 K, x1 = 0.3533 | 863.255 | 1335.5 | 4.319
308.15 K, x1 = 0.4923 | 885.17 | 1335.1 | 3.697
308.15 K, x1 = 0.5986 | 904.477 | 1337 | 3.346
308.15 K, x1 = 0.7153 | 928.613 | 1342.4 | 2.978
308.15 K, x1 = 0.7918 | 946.566 | 1348.3 | 2.817
308.15 K, x1 = 0.901 | 975.664 | 1362.1 | 2.67
308.15 K, x1 = 1 | – | – | 2.507

CCOCCOCCO [3,6-dioxa-1-octanol] + CCCCCCCCO
Settings | mass density [kg/m3] | speed of sound [m/s] | viscosity [mPa·s]
293.15 K, x1 = 0.0518 | 832.339 | 1364.1 | 7.468
293.15 K, x1 = 0.1011 | 839.204 | 1363.5 | 6.913
293.15 K, x1 = 0.1625 | 848.155 | 1363.1 | 6.159
293.15 K, x1 = 0.1944 | 853.018 | 1363.7 | 5.913
293.15 K, x1 = 0.2538 | 862.076 | 1364.5 | 5.872
293.15 K, x1 = 0.3165 | 872.254 | 1365.7 | 5.104
293.15 K, x1 = 0.3685 | 880.933 | 1370.8 | 4.837
293.15 K, x1 = 0.4975 | 904.111 | 1377.4 | 4.361
293.15 K, x1 = 0.6048 | 925.139 | 1387.7 | 4.08
293.15 K, x1 = 0.7202 | 949.653 | 1399.5 | 3.846
293.15 K, x1 = 0.8165 | 971.878 | 1415.1 | 3.739
293.15 K, x1 = 0.9144 | 996.047 | 1349.4 | 3.66
293.15 K, x1 = 1 | – | – | 3.626
298.15 K, x1 = 0.0518 | 828.835 | 1347.1 | 6.198
298.15 K, x1 = 0.1011 | 835.659 | 1346.5 | 6.03
298.15 K, x1 = 0.1625 | 844.559 | 1346.3 | 5.405
298.15 K, x1 = 0.1944 | 849.396 | 1346.7 | 5.188
298.15 K, x1 = 0.2538 | 858.398 | 1347.6 | 4.799
298.15 K, x1 = 0.3165 | 868.522 | 1348.9 | 4.489
298.15 K, x1 = 0.3685 | 877.154 | 1354.1 | 4.279
298.15 K, x1 = 0.4975 | 900.211 | 1360.7 | 3.918
298.15 K, x1 = 0.6048 | 921.137 | 1370.9 | 3.612
298.15 K, x1 = 0.7202 | 945.535 | 1382.7 | 3.431
298.15 K, x1 = 0.8165 | 991.74 | 1398.2 | 3.328
298.15 K, x1 = 0.9144 | 938.234 | 1332.2 | 3.277
298.15 K, x1 = 1 | – | – | 3.278
303.15 K, x1 = 0.0518 | 825.317 | 1330.3 | 5.429
303.15 K, x1 = 0.1011 | 832.097 | 1329.8 | 5.005
303.15 K, x1 = 0.1625 | 840.951 | 1329.5 | 4.636
303.15 K, x1 = 0.1944 | 845.762 | 1329.6 | 4.404
303.15 K, x1 = 0.2538 | 854.713 | 1330.1 | 4.295
303.15 K, x1 = 0.3165 | 864.78 | 1330.9 | 3.845
303.15 K, x1 = 0.3685 | 873.364 | 1332.3 | 3.67
303.15 K, x1 = 0.4975 | 896.3 | 1337.5 | 3.396
303.15 K, x1 = 0.6048 | 917.122 | 1343.9 | 3.141
303.15 K, x1 = 0.7202 | 941.409 | 1354.3 | 3.045
303.15 K, x1 = 0.8165 | 963.444 | 1381.3 | 2.904
303.15 K, x1 = 0.9144 | 987.41 | 1315 | 2.848
303.15 K, x1 = 1 | – | – | 2.862
308.15 K, x1 = 0.0518 | 821.777 | 1313.7 | 4.542
308.15 K, x1 = 0.1011 | 828.522 | 1313.2 | 4.219
308.15 K, x1 = 0.1625 | 837.324 | 1312.9 | 3.897
308.15 K, x1 = 0.1944 | 842.106 | 1312.9 | 3.781
308.15 K, x1 = 0.2538 | 851.006 | 1313.5 | 3.548
308.15 K, x1 = 0.3165 | 861.019 | 1314.5 | 3.327
308.15 K, x1 = 0.3685 | 869.558 | 1315.7 | 3.169
308.15 K, x1 = 0.4975 | 892.371 | 1320.9 | 2.928
308.15 K, x1 = 0.6048 | 913.092 | 1327.4 | 2.721
308.15 K, x1 = 0.7202 | 937.267 | 1337.7 | 2.6
308.15 K, x1 = 0.8165 | 959.204 | 1349.3 | 2.532
308.15 K, x1 = 0.9144 | 983.069 | 1364.5 | 2.493
308.15 K, x1 = 1 | – | – | 2.507
